For 8 compounds, GI50 and TGI results are on record in PubChem BioAssay (NCI).

SMILES strings stand for the structures.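 Test compounds were applied to cells in 96-well plates for 48 hours at 5 doses. Abbreviation: GI50, concentration required for 50% inhibition of growth. Definition used: TGI = concentration required for complete inhibition of growth.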 Where only a bound is given, the exact number is not on record here.

Some test systems named below: A549 NSCLC; DU-145 prostate; HOP-92 NSCLC; LOX IMVI melanoma; MCF7 breast; OVCAR-4 ovarian; OVCAR-8 ovarian; RPMI-8226 leukemia; SK-OV-3 ovarian; SR leukemia.
What all share (test): inhibition of tumour cell growth, NCI panel, 48 h

Take `Cc1ccc(C(NC(=O)c2ccccc2)c2ccc3cccnc3c2O)cc1` (centres undefined): the GI50 in the assay with A549 NSCLC is 0.379 µM; with DU-145 prostate it was 0.442 µM; with HOP-92 NSCLC it was 0.145 µM; in the assay with LOX IMVI melanoma, 0.15 µM; with MCF7 breast, 0.365 µM; in the assay with OVCAR-4 ovarian, 0.275 µM. Further, the GI50 in the assay with OVCAR-8 ovarian is 0.306 µM; in the assay on RPMI-8226 leukemia, 0.323 µM; in the assay with SK-OV-3 ovarian, 0.474 µM; with SR leukemia it was 0.197 µM. Also, the TGI is 12.7 µM in the assay on A549 NSCLC; 41.9 µM in the assay with DU-145 prostate; 11.7 µM in the assay with HOP-92 NSCLC; over 47.3 µM in the assay with MCF7 breast; over 52 µM with OVCAR-4 ovarian; 25.1 µM in the assay with OVCAR-8 ovarian. The TGI is 17.8 µM in the assay with RPMI-8226 leukemia, 30.7 µM in the assay on SK-OV-3 ovarian and over 63.5 µM in the assay on SR leukemia.

Regarding `COc1cc2c(cc1OC)C(Sc1ccc(SC)cc1)c1c(nc(N)c(C#N)c1N)O2` (centres undefined), the GI50 in the assay on A549 NSCLC was 2.05 µM; with DU-145 prostate it was 1.75 µM; in the assay on HOP-92 NSCLC it was 1.96 µM; in the assay with LOX IMVI melanoma, 1.28 µM; in the assay with MCF7 breast, 1.1 µM; in the assay on OVCAR-4 ovarian, 1.64 µM. The GI50 was 1.93 µM in the assay on OVCAR-8 ovarian, 2.54 µM in the assay with RPMI-8226 leukemia, 1.88 µM with SK-OV-3 ovarian and 0.354 µM in the assay with SR leukemia. Moreover, the TGI in the assay with A549 NSCLC was 3.68 µM; with DU-145 prostate, 3.17 µM; with HOP-92 NSCLC, 3.86 µM; in the assay on LOX IMVI melanoma, 2.55 µM; with MCF7 breast it was 3.54 µM; in the assay with OVCAR-4 ovarian, 3.27 µM. In addition, the TGI in the assay on OVCAR-8 ovarian is 3.47 µM; in the assay on RPMI-8226 leukemia, 6.46 µM; in the assay with SK-OV-3 ovarian, 3.31 µM; in the assay with SR leukemia, 2.35 µM.

As for `CCN1C(=O)CCCc2c1ccc(Nc1ncc(Cl)c(NC3[C@@H](C(N)=O)[C@@H]4C=C[C@H]3C4)n1)c2OC` (some centres undefined), the GI50 is 0.741 µM in the assay with A549 NSCLC; 1.81 µM in the assay with DU-145 prostate; 0.276 µM in the assay on HOP-92 NSCLC; 0.774 µM with LOX IMVI melanoma; 0.618 µM in the assay with MCF7 breast; 1.94 µM with OVCAR-4 ovarian. Further, the GI50 is 1.41 µM with OVCAR-8 ovarian, 0.976 µM in the assay on RPMI-8226 leukemia, 2.39 µM with SK-OV-3 ovarian and 0.0556 µM in the assay on SR leukemia. Further, the TGI with A549 NSCLC was 5.88 µM; in the assay with DU-145 prostate, 14.6 µM; in the assay with HOP-92 NSCLC, 2.26 µM; with LOX IMVI melanoma, 2.48 µM; in the assay with MCF7 breast, 6.7 µM; in the assay on OVCAR-4 ovarian, over 41.3 µM. In addition, the TGI in the assay on OVCAR-8 ovarian worked out at 32.2 µM; in the assay on RPMI-8226 leukemia, 4.26 µM; in the assay with SK-OV-3 ovarian it was 7.74 µM; in the assay with SR leukemia, 19.7 µM.

`COc1cc(OC)c2nccc(NCCCN(C)C)c2c1[N+](=O)[O-]`: the TGI in the assay on A549 NSCLC, in the assay with DU-145 prostate, in the assay with HOP-92 NSCLC, in the assay with LOX IMVI melanoma, with MCF7 breast and with OVCAR-4 ovarian was over 100 µM throughout. Further, the TGI in the assay with OVCAR-8 ovarian, in the assay on RPMI-8226 leukemia, in the assay with SK-OV-3 ovarian and with SR leukemia was over 100 µM throughout.

Take `Cc1cc2cc3ccc(N(C)C)cc3nc2cc1N`: the GI50 in the assay with A549 NSCLC was 0.431 µM; in the assay on DU-145 prostate, 0.437 µM; with HOP-92 NSCLC it was 1.14 µM; with LOX IMVI melanoma, 0.325 µM; in the assay on MCF7 breast it was 0.35 µM; in the assay on OVCAR-4 ovarian, 0.904 µM. The GI50 in the assay on OVCAR-8 ovarian is 0.374 µM; in the assay with RPMI-8226 leukemia it was 0.637 µM; with SK-OV-3 ovarian it was 0.552 µM; in the assay on SR leukemia, 0.536 µM. The TGI worked out at 2.61 µM in the assay on A549 NSCLC; 2.45 µM with DU-145 prostate; 4.69 µM in the assay with HOP-92 NSCLC; 5.01 µM in the assay on LOX IMVI melanoma; 11.2 µM in the assay with MCF7 breast; 4.46 µM with OVCAR-4 ovarian. The TGI was found to be 2.36 µM with OVCAR-8 ovarian, 5.55 µM in the assay on RPMI-8226 leukemia, 3.35 µM with SK-OV-3 ovarian and 5.68 µM in the assay with SR leukemia.

Turning to `O=[N+]([O-])c1ccc(C2CC(c3ccccc3Cl)=Nc3ccccc3S2=O)cc1` (centres undefined), the TGI with A549 NSCLC is 38 µM; in the assay with DU-145 prostate, 34.1 µM; with HOP-92 NSCLC, 31.5 µM; in the assay on LOX IMVI melanoma it was 3.79 µM; with MCF7 breast, 7.92 µM; with OVCAR-4 ovarian, 6.12 µM. Also, the TGI in the assay with OVCAR-8 ovarian was determined as 11.7 µM; in the assay on RPMI-8226 leukemia, 4.19 µM; in the assay with SK-OV-3 ovarian, 52.9 µM; in the assay on SR leukemia it was 6.64 µM.

For the compound `N[C@@H]1C(=O)N2C(C(=O)OC(c3ccccc3)c3ccccc3)=C(CCl)CS[C@H]12`, the GI50 is over 67.5 µM in the assay with A549 NSCLC; 15 µM in the assay on DU-145 prostate; 38.3 µM in the assay on HOP-92 NSCLC; 24.9 µM in the assay with LOX IMVI melanoma; 33.6 µM with MCF7 breast; 44.8 µM in the assay on OVCAR-4 ovarian. Besides, the GI50 in the assay with OVCAR-8 ovarian was 27.3 µM; in the assay with RPMI-8226 leukemia it was 16.8 µM; with SK-OV-3 ovarian it was over 100 µM; in the assay with SR leukemia it was 2.12 µM. Further, the TGI was over 100 µM in the assay on A549 NSCLC; over 100 µM with DU-145 prostate; over 71.4 µM in the assay on HOP-92 NSCLC; 65 µM in the assay on LOX IMVI melanoma; over 100 µM in the assay with MCF7 breast; over 100 µM with OVCAR-4 ovarian. Besides, the TGI is over 77 µM with OVCAR-8 ovarian, 50.8 µM in the assay on RPMI-8226 leukemia, over 100 µM in the assay with SK-OV-3 ovarian and 33.8 µM in the assay with SR leukemia.

In the case of `Clc1ccc(-c2nnc(-c3cccc4ccccc34)o2)cc1Cl`, the TGI in the assay on A549 NSCLC, in the assay on DU-145 prostate, in the assay on HOP-92 NSCLC, with LOX IMVI melanoma, in the assay with MCF7 breast and in the assay on OVCAR-4 ovarian was over 100 µM each time. The TGI in the assay on OVCAR-8 ovarian, in the assay on RPMI-8226 leukemia, in the assay on SK-OV-3 ovarian and in the assay with SR leukemia was over 100 µM each time.
